Measured values: US7334580B2, “Methods, devices and formulations for targeted endobronchial therapy” (priority 2003, dated 2008)

Assay: Antibiotic aerosol delivery with nebulizer at distal Y position, three nebulizers
Parameters: unit not given here
Conditions: T-BIRD, continuous
Source text: The inhaled mass filter 1040 allows one to do accurate measurements of what delivery amounts are actually reaching the patient 10.
In a second experiment, the arrangements of FIGS. 15A and 15B were used with a single commercially available ventilator (the T-Bird ventilator) together with three different commercially available nebulizers. The nebulizer actuation was examined in the “continuous” mode. The humidity feature for these ventilators was examined by performing the test both when the feature is active and when it is off. An expiratory line filter was also used (not shown). Clearly, the Portex nebulizer performed poorly under these conditions.

[1] = AEROGEN nebulizer, humidity OFF
[2] = AEROTECH nebulizer, humidity OFF
[3] = AEROTECH nebulizer, humidity ON

Row | Compound | MMAD [1] | MMAD (AEROGEN nebulizer, humidity ON) | MMAD [2] | MMAD [3] | MMAD (PORTEX nebulizer, humidity ON)
1 | CN[C@H](CC(C)C)C(=O)N[C@H]1C(=O)N[C@@H](CC(N)=O)C(=O)N[C@H]2C(=O)N[C@H]3C(=O)N[C@H](C(=O)N[C@H](C(=O)O)c4cc(O)cc(O)c4-c4cc3ccc4O)[C@H](O)c3ccc(c(Cl)c3)Oc3cc2cc(c3O[C@@H]2O[C@H](CO)[C@@H](O)[C@H](O)[C@H]2O[C@H]2C[C@](C)(N)[C@H](O)[C@H](C)O2)Oc2ccc(cc2Cl)[C@H]1O [VANCOMYCIN, vancomycin] | 2 | 2 | 1.7 | 1.1 | 1.1
2 | gentamicin | 1.1 | 1.2 | 0.9 | 1.3 | 0.9
